Holding throughout (type): cell-based
Experiment [1] addresses T1, ΔF508-CFTR (Homo sapiens, UniProt P13569, DEL508-508).
T1 construct: expressed in transfected cells; host or cells: Fischer rat thyroid (FRT) epithelial cells, stably transfected
As to the kind of experiment: Corrector assay, YFP fluorescence plate reader iodide influx in ΔF508-CFTR expressing FRT cells. Here is the method:
Screening procedures. Screening of compounds for activity was carried out using a Beckman Coulter platform equipped with FLUOstar fluorescence plate readers (Optima; BMG Labtech) with dual syringe pumps and 500±10 nm excitation and 535±15 nm emission filters (Chroma Corp.). For the corrector assay, FRT cells were grown at 37° C./5% CO2 for 18-24 h and then incubated for 18-24 h with 100 μL of medium containing test compounds (25 μM final concentration). At the time of the assay, cells were washed with PBS and then incubated for 10 min with PBS containing forskolin (20 μM) and genistein (50 μM). For the potentiator assay, FRT cells were grown at 37° C./5% CO2 for 18-24 h and then for 18-24 h at 27° C. At the time of the assay, cells were washed with PBS and then incubated for 10 min with PBS (50 μL) containing forskolin (20 μM) and test compound (0-25 μM final concentration). For both the corrector and potentiator assays, each well was assayed individually for I^− influx by recording fluorescence continuously (200 ms per point) for 2 s (baseline) and then for 12 s after rapid addition of 165 μL PBS in which 137 mM Cl^− was replaced by I^−. Initial I^− influx rate was computed by fitting the final 11.5 seconds of the data to an exponential for extrapolation of initial slope, which was normalized for background-subtracted initial fluorescence. All compound plates contained negative controls and positive controls (10 μM Corr-4a for corrector assay; 50 μM genistein for potentiator assay).
Screening of about 110,000 small molecules was done to identify new ΔF508-CFTR corrector scaffolds having high correction efficiency and/or having independent potentiator activity. […] FRT cells co-expressing human ΔF508-CFTR and a halide-sensing YFP were incubated with test compounds at 37° C. (corrector assay) or 27° C. (potentiator assay). ΔF508-CFTR function was assayed in a plate reader from YFP fluorescence quenching in response to iodide addition in the presence of forskolin (20 μM) plus genistein (50 μM) for corrector assay, or forskolin (20 μM) alone for potentiator assay. As shown in FIG. 1A (left), primary screening for corrector activity was done using a cell-based fluorescence assay of iodide influx in which FRT cells expressing ΔF508-CFTR and an iodide-sensitive YFP were incubated with test compounds at 10 μM for 18-24 h prior to assay. Iodide influx was measured by addition of extracellular iodide in the presence of a potentiator (50 μM genistein) and cAMP agonist (20 μM forskolin). Compound efficacy and potency (from concentration-dependence studies) in the corrector assay were compared to reference bithiazole Corr-4a (10 μM) and to low-temperature rescued cells. Active compounds were counter-screened for potentiator activity (FIG. 1A, right) in which iodide influx was measured in the ΔF508-CFTR expressing FRT cells after low-temperature rescue and in the presence of 20 μM forskolin.
Screening procedures. Plate reader activity assay was carried out using a Beckman Coulter platform containing a robotic arm, CO2 incubator containing microplate carousel, plate-washer, liquid handling work station, bar code reader, de-lidding station, plate sealer, and FLUOstar fluorescence plate readers (Optima; BMG LABTECH Gmbh), equipped with dual syringe pumps and 500±10 nm excitation and 535±15 nm emission filters (Chroma Corp.). For the corrector assay, ΔF508-CFTR-expressing FRT cells were grown at 37° C. (90% humidity; 5% CO2) for 18-24 h and then incubated for 18-24 h with 100 μL of medium containing test compounds (0-25 μM final concentration). At the time of the assay, cells were washed with PBS and then incubated for 10 min with PBS containing forskolin (20 μM) and genistein (50 μM). For the potentiator assay, FRT cells were grown at 37° C. (90% humidity; 5% CO2) for 18-24 h and then for 18-24 h at 27° C. […]

For experiment [2], the target named is T1, ΔF508-CFTR. As to the kind of experiment: Short-circuit current (apical membrane chloride current) corrector assay in ΔF508-CFTR expressing FRT cells. The note with it: 10 μM, 18-24 h incubation. The procedure: Short-circuit current measurements. ΔF508-CFTR-expressing FRT cells were cultured on Snapwell inserts for 7-9 days. For corrector testing, test compounds were incubated with FRT cells for 18-24 h at 37° C. prior to measurements. For potentiator testing, the FRT cells were incubated for 18-24 h at 27° C. prior to measurements. The basolateral solution contained 130 mM NaCl, 2.7 mM KCl, 1.5 mM KH2PO4, 1 mM CaCl2, 0.5 mM MgCl2, 10 mM glucose, and 10 mM Na-HEPES (pH 7.3). In the apical bathing solution, 65 mM NaCl was replaced by Na gluconate, and CaCl2 was increased to 2 mM. Solutions were bubbled with air and maintained at 37° C. The basolateral membrane was permeabilized with 250 μg/ml amphotericin B. Hemichambers were connected to a DVC-1000 voltage clamp (World Precision Instruments Inc.) via Ag/AgCl electrodes and 1 M KCl agar bridges for recording of short-circuit current.
Short-circuit current was measured as a definitive electrophysiological assay to verify Compound 22 corrector action. Apical membrane chloride current was measured in ΔF508-CFTR expressing FRT cells after basolateral membrane permeabilization and in the presence of a transepithelial chloride gradient (apical, 65 mM; basolateral, 130 mM). In FIG. 3C, incubation with Corr-4a (5 μM) is shown as reference (right). Forskolin (20 μM), genistein (50 μM) and CFTRinh-172 (10 μM) were added where indicated. […] FIG. 3D summarizes Compound 22 concentration dependence data from short-circuit current studies. […]
Short-circuit current was measured in an electrophysiology assay to verify corrector activity. Apical membrane chloride current was measured in ΔF508-CFTR expressing FRT cells after basolateral membrane permeabilization and in the presence of a transepithelial chloride gradient. […] To assay potentiator activity apical membrane chloride current was measured after low-temperature rescue, in response to CP-3 addition. CP-3 concentration-dependent increases in apical membrane current were measured in the presence of 5 μM forskolin. […]

Experiment [3] concerns the target T1, ΔF508-CFTR. Briefly: CFTR immunoblot of ΔF508-CFTR expressing FRT cells. The following applies: 24 h at 37° C. Here is the method:
CFTR Immunoblot. DF508-CFTR expressing FRT cells grown on 6-well plates were treated with Corr-4a ([…]), Compound 22 […] or negative control at 37° C. for 24 h. After treatment, cells were washed with PBS and lysed in 20 mM Hepes (pH 7), 150 mM NaCl, 1 mM EGTA and 1% Igepal containing Complete Protease Inhibitor Cocktail (Roche). After pre-clearing, lysates were subjected to SDS-PAGE and analyzed by immunoblot. Proteins were immunodetected using a mouse monoclonal anti-CFTR antibody (M3A7, Millipore) followed by HRP-conjugated anti-mouse IgG, and visualized by chemiluminescence (ECL Plus, Amersham).
The action of Compound 22 as corrector of defective ΔF508-CFTR cellular processing was verified by CFTR immunoblot analysis (FIG. 4C). Wildtype CFTR was detected as a strong band at 170 kDa (band C), corresponding to complex glycosylated CFTR. […] Band B, which corresponds to core-glycosylated ΔF508-CFTR, was also seen.
In general terms: In western blotting, separated proteins are transferred to a membrane and probed.

T1 sequence (P13569 with tags, fused parts or gaps DEL508-508): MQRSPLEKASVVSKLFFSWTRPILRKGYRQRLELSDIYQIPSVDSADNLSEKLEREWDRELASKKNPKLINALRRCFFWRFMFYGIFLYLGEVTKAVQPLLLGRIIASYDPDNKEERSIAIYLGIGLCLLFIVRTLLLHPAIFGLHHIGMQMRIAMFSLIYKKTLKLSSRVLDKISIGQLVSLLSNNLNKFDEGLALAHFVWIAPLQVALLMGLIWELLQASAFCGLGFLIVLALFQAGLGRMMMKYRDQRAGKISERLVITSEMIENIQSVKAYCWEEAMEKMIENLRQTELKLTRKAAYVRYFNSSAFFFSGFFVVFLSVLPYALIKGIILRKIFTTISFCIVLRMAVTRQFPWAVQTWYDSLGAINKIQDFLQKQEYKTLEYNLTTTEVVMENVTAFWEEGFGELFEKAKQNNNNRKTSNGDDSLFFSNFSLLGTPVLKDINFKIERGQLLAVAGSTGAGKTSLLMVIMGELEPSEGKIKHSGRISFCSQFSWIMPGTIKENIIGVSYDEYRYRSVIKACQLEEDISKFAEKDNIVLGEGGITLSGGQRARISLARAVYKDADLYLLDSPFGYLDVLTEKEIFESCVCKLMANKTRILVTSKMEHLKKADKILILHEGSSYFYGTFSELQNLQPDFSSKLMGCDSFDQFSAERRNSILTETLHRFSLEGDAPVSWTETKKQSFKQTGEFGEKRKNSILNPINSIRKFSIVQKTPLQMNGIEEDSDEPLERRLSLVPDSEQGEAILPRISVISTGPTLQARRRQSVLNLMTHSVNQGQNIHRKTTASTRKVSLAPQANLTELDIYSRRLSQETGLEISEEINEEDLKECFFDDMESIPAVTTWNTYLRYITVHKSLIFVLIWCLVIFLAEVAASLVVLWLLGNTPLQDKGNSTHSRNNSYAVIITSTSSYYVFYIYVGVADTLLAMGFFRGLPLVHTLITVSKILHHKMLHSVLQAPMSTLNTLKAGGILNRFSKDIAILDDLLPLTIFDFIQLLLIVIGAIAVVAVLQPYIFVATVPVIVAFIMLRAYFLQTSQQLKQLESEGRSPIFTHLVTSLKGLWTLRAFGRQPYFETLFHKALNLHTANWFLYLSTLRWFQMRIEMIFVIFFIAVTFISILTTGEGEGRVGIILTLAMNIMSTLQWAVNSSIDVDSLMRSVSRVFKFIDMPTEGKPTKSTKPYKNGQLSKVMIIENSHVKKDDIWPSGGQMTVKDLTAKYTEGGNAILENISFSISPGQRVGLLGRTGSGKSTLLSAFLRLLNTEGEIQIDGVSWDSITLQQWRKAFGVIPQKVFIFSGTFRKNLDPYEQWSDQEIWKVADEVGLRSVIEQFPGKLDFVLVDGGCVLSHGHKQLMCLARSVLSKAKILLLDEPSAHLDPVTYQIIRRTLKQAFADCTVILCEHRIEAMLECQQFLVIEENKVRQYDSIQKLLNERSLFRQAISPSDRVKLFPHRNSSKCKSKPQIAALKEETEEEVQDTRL

With `COc1ccc(C(=O)NCCNc2nc3cc(C)cc(C)c3cc2C#N)cc1` [Compound CP3], on ΔF508-CFTR [1] (concentration-dependence in corrector and potentiator I− influx assays (FIG. 2, FIG. 7)), the “corrector and potentiator activities, in words” value is “both corrector and potentiator activities”. For the same molecule, the “apical membrane current (corrector)” value on ΔF508-CFTR [2] was “increase in apical membrane current”.
For the molecule `COc1ccc(Cl)cc1Nc1nc(-c2sc(NC(=O)c3ccccc3)nc2C)cs1` [Corr-4a, reference compound], the “iodide influx after incubation at 27° C.” value at ΔF508-CFTR [1] (Compound 22 (20 µM) or Corr-4a (10 µM), 24 h, 27° C., vs low-temperature rescue control) is listed as “substantially increased iodide influx”. On ΔF508-CFTR [1] (Compound 22 (20 µM) or Corr-4a (10 µM), 24 h, 37° C., with genistein), the “iodide influx after incubation at 37° C.” value is given as “increased iodide influx”. Also, the “complex glycosylated CFTR (band C) in immunoblot” value at ΔF508-CFTR [3] is “band C was visualized”.

For the origin of these results see US9073863B2, “Cyanoquinoline compounds having activity in correcting mutant-CFTR processing and increasing ion transport and uses thereof” (The Regents of the University of California, priority 2011, dated 2015).
